In patent US20260174734A1, “PHARMACEUTICAL COMPOSITION” (MEXICHEM FLUOR S.A. DE C.V., priority 2016, published 2026):

What was measured:
[1] = In vitro aerosolization performance from MDI (Next Generation Impactor); type: physicochemical
Experimental: The drugs were weighed directly into standard uncoated 14 ml aluminium canisters (C128, Presspart, Blackburn, UK). The canisters were then crimped with a 50 μL valve (Bespak, Kings Lynn, UK) following which the propellant was filled into the canisters through the valve using a manual Pamasol crimper/filler (Pamasol, Switzerland).
Finally, the canisters were sonicated for 20 minutes to aid dispersion of the drug in the suspension.
The in vitro aerosolization performance of the formulations was tested immediately after preparation (time t=zero) with a Next Generation Impactor using the method described below. The formulations were then stored under stress storage conditions (valve down) at 40° C. and 75% relative humidity for 1 month. After storing for 1 month under the stress storage conditions, the in vitro aerosolization performance of the pharmaceutical formulations was tested again as before with a Next Generation Impactor using the method described below.
The Next Generation Impactor (NGI, Copley Scientific, Nottingham UK) was connected to a vacuum pump (GE Motors, NJ, USA). Prior to testing, the cups of the NGI system were coated with 1% v/v silicone oil in hexane to eliminate particle bounce. For each experiment, three actuations of the valve were discharged into the NGI at 30 L.min-1 as per pharmacopeia guidelines. Following aerosolization, the NGI apparatus was dismantled and the actuator and each part of the NGI was washed down into known volumes of the HPLC mobile phase. The mass of drug deposited on each part of the NGI was determined by HPLC. This protocol was repeated three times for each canister, following which, the fine particle dose (FPD) and fine particle fraction of the emitted dose (FPFED) were determined.
High performance liquid chromatography (HPLC) was used to determine drug content following aerosolization studies (see below).
(§1) The columns were coupled to a UV detector operating at a wavelength of either 220 nm or 235 nm depending on which drug was being analysed. The autosampler was operated at ambient temperature and 100 μl samples were injected into the column for the analyses.

[2] = Chemical stability in propellant in uncoated aluminium cans (HPLC assay and total impurities); conditions: for % Assay (LC) / % total impurities: uncoated aluminium cans
Experimental: as §1

[3] = HFA-134a propellant, T = 0, combination formulation, MDI
[4] = HFA-134a propellant, T = 1 month @ 40° C./75% RH, valve down
[5] = HFA-152a propellant, T = 0, combination formulation, MDI
[6] = HFA-152a propellant, T = 1 month @ 40° C./75% RH, valve down
[7] = HFA-134a, T = 1M @ 25° C./60% RH
[8] = HFA-134a, T = 1M @ 40° C./75% RH
[9] = HFA-134a, T = 3M @ 25° C./60% RH
[10] = HFA-134a, T = 3M @ 40° C./75% RH
[11] = HFA-152a, T = 1M @ 25° C./60% RH
[12] = HFA-152a, T = 1M @ 40° C./75% RH
[13] = HFA-152a, T = 3M @ 25° C./60% RH
[14] = HFA-152a, T = 3M @ 40° C./75% RH

| SMILES | Emitted Dose (μg ± S.D.) [1, 3] [µg] | Fine Particle Dose (μg ± S.D.) [1, 3] [µg] | MMAD ± GSD (μm) [1, 3] [μm] | Emitted Dose (μg ± S.D.) [1, 4] [µg] | Fine Particle Dose (μg ± S.D.) [1, 4] [µg] | MMAD ± GSD (μm) [1, 4] [μm] | Emitted Dose (μg ± S.D.) [1, 5] [µg] | Fine Particle Dose (μg ± S.D.) [1, 5] [µg] | MMAD ± GSD (μm) [1, 5] [μm] | Emitted Dose (μg ± S.D.) [1, 6] [µg] | Fine Particle Dose (μg ± S.D.) [1, 6] [µg] | MMAD ± GSD (μm) [1, 6] [μm] | % Assay (LC) ([2]; HFA-134a, Initial time T = 0) [%] | % total impurities ([2]; HFA-134a, Initial time T = 0) | % Assay (LC) [2, 7] [%] | % total impurities [2, 7] [%] | % Assay (LC) [2, 8] [%] | % total impurities [2, 8] [%] | % Assay (LC) [2, 9] [%] | % total impurities [2, 9] [%] | other results |
| --- | --- | --- | --- | --- | --- | --- | --- | --- | --- | --- | --- | --- | --- | --- | --- | --- | --- | --- | --- | --- | --- |
| C[N+]1(C)CCC(OC(=O)C(O)(c2ccccc2)C2CCCC2)C1 (stereo not shown) [Glycopyrronium Bromide, glycopyrronium bromide] | 43.7 ± 0.2 | 12.6 ± 0.1 | 2.6 ± 2.4 | 38.7 ± 0.6 | 11.4 ± 0.4 | 2.8 ± 2.3 | 45.2 ± 0.7 | 21.0 ± 1.0 | 3.1 ± 2.2 | 44.2 ± 0.6 | 20.7 ± 0.8 | 3.0 ± 2.2 | 98.5 | 0.19% | 98.2 | 0.28 | 97.8 | 0.39 | 94.8 | 1.15 | MMAD ([1]; HFA-134a based formulations): around 2.6 μm; % Assay (LC) [2, 10]: 93.8%; % total impurities [2, 10]: 1.38%; % Assay (LC) ([2]; HFA-152a, Initial time T = 0): 98.5%; % total impurities ([2]; HFA-152a, Initial time T = 0): 0.19%; % Assay (LC) [2, 11]: 98.6%; % total impurities [2, 11]: 0.25%; % Assay (LC) [2, 12]: 98.4%; % total impurities [2, 12]: 0.35%; % Assay (LC) [2, 13]: 97.6%; % total impurities [2, 13]: 0.55%; % Assay (LC) [2, 14]: 97.2%; % total impurities [2, 14]: 0.82% |
| CCc1cc2c(cc1CC)CC(NC[C@H](O)c1ccc(O)c3[nH]c(=O)ccc13)C2 [Indacaterol, indacaterol] | – | – | – | – | – | – | – | – | – | – | – | – | – | – | – | – | – | – | – | – | chemical stability under accelerated test conditions, HFA-152a rather than HFA-134a ([2]; HFA-152a as aerosolization propellant versus HFA-134a): superior chemical stability |
| CCC(=O)O[C@]1(C(=O)SCF)[C@H](C)C[C@H]2[C@@H]3C[C@H](F)C4=CC(=O)C=C[C@]4(C)[C@@]3(F)[C@@H](O)C[C@@]21C [Fluticasone Propionate, fluticasone propionate] | 119.0 ± 2.0 | 38.8 ± 1.7 | 3.0 ± 1.8 | 112.8 ± 2.3 | 32.8 ± 1.9 | 3.1 ± 1.9 | 111.8 ± 0.7 | 51.5 ± 1.9 | 3.0 ± 1.9 | 105.6 ± 0.8 | 48.5 ± 1.5 | 2.9 ± 1.9 | 98.5 | <LoQ | 98.2 | 0.19 | 97.8 | 0.38 | 94.8 | 0.58 | FPFED (%) fine particle fraction of the emitted dose [1, 3]: 32.6 ± 0.9%; FPFED (%) fine particle fraction of the emitted dose [1, 4]: 29.0 ± 1.9%; FPFED (%) fine particle fraction of the emitted dose [1, 5]: 46.1 ± 1.5%; FPFED (%) fine particle fraction of the emitted dose [1, 6]: 45.2 ± 1.2%; % Assay (LC) [2, 10]: 93.8%; % total impurities [2, 10]: 0.69%; % Assay (LC) ([2]; HFA-152a, Initial time T = 0): 98.5%; % total impurities ([2]; HFA-152a, Initial time T = 0): <LoQ; % Assay (LC) [2, 11]: 98.6%; % total impurities [2, 11]: <LoQ; % Assay (LC) [2, 12]: 98.4%; % total impurities [2, 12]: 0.18%; % Assay (LC) [2, 13]: 97.6%; % total impurities [2, 13]: <LoQ; % Assay (LC) [2, 14]: 97.2%; % total impurities [2, 14]: 0.58% |
